Experimental findings from patent US7399866B2, “Compounds, compositions, and methods” (Cytokinetics, Inc., priority 2003, dated 2008) are described below.

The structures appear in SMILES notation.

As for `CC(=O)N1CCC[C@@H](Oc2cc(F)cc(NC(=O)Nc3cccnc3)c2)C1` [Example 1, (R)-1-[3-(1-Acetyl-piperidin-3-yloxy)-5-fluoro-phenyl]-3-pyridin-3-yl-urea], the melting point (usually the temperature of the solid-liquid transition) was 145 °C.
